Assay results published in patent US20030139438A1, “Diagnosis of the parkinsonian condition” (priority 2001, published 2003).

What was measured:
opioid receptor = test: Naltrexone challenge in reserpine-treated rats, locomotor activity (Benwick monitors); type: in vivo, Sprague-Dawley rats
Method: Reserpine was administered to rats to deplete dopamine levels. […] In this situation the animals represent a model of pre-symptomatic patients, i.e. they have a dopamine depletion but no overt symptoms.
Male Sprague-Dawley rats were split into two groups A and B. Rats in both groups received a subcutaneous administration of reserpine (3 mg/kg). The rats were allowed to recover for 48 hours post reserpine treatment at which point they are considered to represent a model of pre-symptomatic Parkinson's disease.
After the 48 hours Group A were treated with vehicle (water) and group B were treated with naltrexone (10 mg/kg) and placed in locomotor monitoring apparatus (see below).
The locomotion of the rats in Groups A and B following either vehicle or naltrexone treatment was measured over the 5 minute period immediately after drug administration using Benwick locomotor monitors. These locomotion monitors consist of a visually-shielded open-field arena, the perimeter of which is surrounded by a series of infra-red beams arranged at 5 cm intervals. PC-based software (Amlogger) assesses the number of beams broken. The number of beams broken as part of a locomotor movement (activity counts) was measured.

dopamine levels = test: Reserpine-induced dopamine depletion in rats; type: in vivo; details: 3 mg/kg s.c., after 48 hours
Method: (§1) Reserpine (3 mg/kg, s.c, in 3% glacial acetic acid) was administered to rats to deplete dopamine levels.
(§2) In this situation the animals represent a model of pre-symptomatic subjects, i.e. they have a dopamine depletion but no symptoms.

actions of metenkephalin = test: Naloxone challenge in reserpine-treated rat model of pre-symptomatic subjects; type: in vivo, rats
Method: as §1, §2
The parkinsonan symptoms were reversible and were not observed one hour after the naloxone injection where the animals returned to the presymptomatic state.

striatal DA content = test: Neurochemical analysis of striatal DA by HPLC with electrochemical detection; type: in vivo, Macaca fascicularis
Method: (§3) Five monkeys were killed at the beginning of the study and were considered as day 0 (D0) controls. The remaining 20 were treated with daily (9:00 am) injections of MPTP hydrochloride (0.2 mg/kg, i.v.; Sigma, St Louis, Mo.) in saline according to a previously described protocol (Bezard et al., 1997 Neuroscience 81 p 399-404; Bezard et al., 1997 Brain Res. 766 p 107-112; and Bezard et al., 1999 Eur. J. Neurosci. 11 p 2167-2170). This protocol derives a reproducible MPTP cumulative dosing regime that leads to the first appearance of parkinsonian clinical signs after 15±1 injections (3.0±0.02 mg/kg). Five presymptomatic monkeys were killed on day 6 (i.e., after 6 injections; D6 Group), five presymptomatic monkeys at day 12 (i.e. after 12 injections; D12 group), five at day 15 after appearance of overt symptoms (i.e. after 15 injections; D15 group), and the remaining five fully parkinsonian monkeys at day 25 (i.e. after 15 injections; D25). All animals were killed by sodium pentobarbital overdose (150 mg/kg, i.v.) and the brains were removed quickly after death. Each brain was bisected along the midline and the two hemispheres were immediately frozen by immersion in isopentane (−45° C.) and then stored at −80° C. Tissue was sectioned at 20 μm in a cryostat at −17° C., thaw-mounted onto gelatin-subbed slides, dried on a slide warmer and stored at −80° C.
The extent of striatal DA denervation was assessed by measuring levels of DA, 3,4-dihydroxyphenylacetic acid (DOPAC) and homovanillic acid (HVA) in both the caudate nucleus and the putamen using high-pressure liquid chromatography with electrochemical detection as previously described (Bezard et al., 1997 Neuroscience 81 p399-404) with minor modifications. […] Pellets were retained for quantification of protein content by the Bradford assay (Bezard et al., 1997 Neuroscience 81 p 399-404). […] Concentrations of DA and metabolites were calculated using a computing integrator (Gold Nouveau V 1.6, Beckman). Mean and SEM values were calculated for both putamen and caudate nucleus for each group.

PPE-A mRNA = test: Preproenkephalin-A in situ hybridization in striatum; type: in vivo, Macaca fascicularis
Method: as §3
In situ hybridization histochemistry was performed as previously described by Henry et al. (1999 Exp. Neurol. 155 p204-220) using a ^35S-radiolabeled oligonucleotide probe (Gibco BRL) corresponding to amino acids 130-145 of the human sequence of PPE-A. One microliter of the oligonucleotide was tailed by the isotope of 37° C. in a mixture containing 10 μl sterile water, 12.5 μl reaction buffer (sodium cocodylate 120 mM and dithiothreitol 100 mM), and 2 μl terminal deoxynucleotide transferase (all reagents DuPont/NEN) with 7 μl of [^35S] ATP (82.5 μCi, NEN). […] One microliter of this solution was counted by a liquid scintillation counter (Tricarb, 1500 Packard) to asses the efficiency of labeling. […]
Densitomeric analysis of autoradiographs was performed using an image analysis system (Image Pro Plus, v3.0.01, Media Cybernetics L.P., Atlanta, Ga.) as previously described (Henry et al., supra). The optical density of the autoradiogram was assessed for the striatum at three rostrocaudal levels in accordance with the functional organisation of the striatum: a rostral level, including the caudate, putamen, and nucleus accumbens; a midlevel, including the caudate, putamen, and GPe; and a caudal level including the body of the caudate, the putamen, and both the GPe and GPi. […] Four sections per animal, per striatal level were analyzed by an examiner blind with regard to experimental condition. […]

cynomolgus monkeys [1] = test: Parkinsonian monkey rating scale after chronic MPTP administration; type: in vivo, Macaca fascicularis; details: scale 0-25
Method: (§4) Experiments were conducted on twenty five female cynomolgus monkeys (Macaca fascicularis, Shared Animal Health, Beijing, PR of China; mean age=3.1. ±0.3 years; mean weight=2.8 ±0.2 kg). Animals were housed in individual primate cages under controlled conditions of humidity (50±5%0, temperature (24 ±1° C.), and light (12 h light/dark cycles), food and water were available ad libitum and their care supervised by veterinarians skilled in the healthcare and maintenance of nonhuman primates. Experiments were carried out in accordance with European Economic Community (86/6091/EEC) guidelines for care of laboratory animals. The effect of nontreatment on both motor behaviour and PPE-A expression had been previously compared with that of the administration of saline in order to rule out any possible interference. Accordingly MPTP-treated animals were compared with “nontreated” controls in this study. This procedure has been chosen to minimise the number of animals used. In addition, brain tissues acquired for the present experiments are being used for further experiments.
as §3, with “Tissue was sectioned at 20 μm in a cryostat at −17° C., thaw-mounted onto gelatin-subbed slides, dried on a slide warmer and stored at −80° C.” left out
(§5) Animal behavior was assessed daily (2 p.m) on a parkinsonian monkey rating scale (Bezard et al., 1997 Neuroscience 81 p399-404; and Bezard et al., 1997 Neuroreport 8 p435-438) using videotape recordings of monkeys in their cages in addition to clinical neurological evaluation. During each session two examiners evaluated the animals' levels of motor performance, coaxing them to perform various tasks by offering appetizing fruit. […]

cynomolgus monkeys [2] = test: Bradykinesia test (time to pick up three pieces of fruit) after chronic MPTP; type: in vivo, Macaca fascicularis; details: maximum 60 s
Method: as §4
as §3, with “Tissue was sectioned at 20 μm in a cryostat at −17° C., thaw-mounted onto gelatin-subbed slides, dried on a slide warmer and stored at −80° C.” left out
as §5

Q: Which parkinsonian symptoms (opioid receptor; 10 mg/kg i.p., rats 48 hours after reserpine) does the source give for `O=C1CC[C@@]2(O)[C@H]3Cc4ccc(O)c5c4[C@@]2(CCN3CC2CC2)[C@H]1O5` [naltrexone] here?
A: parkinsonian symptoms appeared

Q: What about the “activity counts versus vehicle treated group” value (opioid receptor; 10 mg/kg, 5 minute period after administration, rats 48 hours after reserpine 3 mg/kg s.c., P<0.01) of the same compound?
A: significantly less

Q: How did the dopamine level (dopamine levels) turn out when `COC(=O)[C@H]1[C@H]2C[C@@H]3c4[nH]c5cc(OC)ccc5c4CCN3C[C@H]2C[C@@H](OC(=O)c2cc(OC)c(OC)c(OC)c2)[C@@H]1OC` [Reserpine] was run?
A: not less than 20 % of normal levels

Q: Which parkinsonian symptoms (actions of metenkephalin; 10 mg/kg i.p., rats 48 hours after reserpine 3 mg/kg s.c.) does the source give for `C=CCN1CC[C@]23c4c5ccc(O)c4O[C@H]2C(=O)CC[C@@]3(O)[C@H]1C5` [naloxone] here?
A: parkinsonian symptoms became manifest

Q: And the “parkinsonian symptoms one hour after the injection” value (actions of metenkephalin; 10 mg/kg i.p., reserpine-treated rats)?
A: not observed

Q: What about the “parkinsonian symptoms in control animals not treated with reserpine” value (actions of metenkephalin; naloxone without reserpine) of the same compound?
A: No parkinsonian symtoms were seen

Q: For `CN1CC=C(c2ccccc2)CC1` [MPTP, 1-methyl-4-phenyl-1,2,3,6-tetrahydropyridine], which “reduction of DA level in the putamen compared to D0” value (striatal DA content; D6 group) is on record?
A: 42.7%

Q: What about the “depletion of DA in the putamen compared to D0” value (striatal DA content; D12 group, asymptomatic) of the same compound?
A: 56.3%

Q: What about the “decrease of DA level in the putamen compared to D0” value (striatal DA content; D25 group) of the same compound?
A: 97.9%

Q: What about the “PPE-A mRNA levels in striatum compared to D0” value (PPE-A mRNA; D6 group) of the same compound?
A: no significant difference

Q: What about the “PPE-A mRNA levels in striatum compared to D0” value (PPE-A mRNA; D12 group, asymptomatic) of the same compound?
A: sharp increase

Q: What about the “PPE-A mRNA levels in striatum compared to D0” value (PPE-A mRNA; D15 group, mild parkinsonian symptoms) of the same compound?
A: same distribution of increased levels

Q: What about the “PPE-A mRNA levels in striatum compared to D0” value (PPE-A mRNA; D25 group, fully parkinsonian) of the same compound?
A: pronounced increases

Q: What about the parkinsonian score (cynomolgus monkeys [1]; D6 group, 6 daily injections 0.2 mg/kg i.v.) of the same compound?
A: 0

Q: And the parkinsonian score (cynomolgus monkeys [1]; D12 group, 12 daily injections 0.2 mg/kg i.v.)?
A: 0

Q: And the “parkinsonian score, median (range)” value (cynomolgus monkeys [1]; D15 group, 15 injections 0.2 mg/kg i.v.)?
A: 11 (range 10-14)

Q: What about the “parkinsonian score, median (range)” value (cynomolgus monkeys [1]; D25 group, killed at day 25 after 15 injections) of the same compound?
A: 17 (range 15-19)

Q: And the “mean duration of the bradykinesia test” value (cynomolgus monkeys [2]; D6 group, D0 controls 3.0±0.4 s)?
A: 2.4 ± 0.3 s

Q: What about the “mean duration of the bradykinesia test” value (cynomolgus monkeys [2]; D12 group, D0 controls 3.0±0.4 s) of the same compound?
A: 2.6 ± 0.5 s

Q: And the “mean duration of the bradykinesia test” value (cynomolgus monkeys [2]; D15 group)?
A: 19.9 ± 9.1 s

Q: And the “mean duration of the bradykinesia test” value (cynomolgus monkeys [2]; D25 group, could not perform the test)?
A: 60 s
